In US10697019B2, “Method of diagnosis and prognosis” (IMPERIAL COLLEGE INNOVATIONS LIMITED, priority 2011, dated 2020):
[ ]: non-standard residue; d: D form. The star is where a group is joined. Cbz = O=C(OCc1ccccc1)*

Tested on: panel of 29 cancer cell lines
Assay: [3H]thymidine incorporation assay of Z-DTP-induced killing, correlated with Gadd45β mRNA expression (qRT-PCR)
Type: cell-based
Settings: 10 μM Z-DTP2 for 144 hrs, Pearson correlation p<0.01
Source text: The significance of the correlation co-efficient between the two parameters is p<0.01 (Pearson correlation as calculated by GraphPad software).
For example, primary cell from multiple myeloma patients can be analysed for levels of Gadd45β expression, and patients with high levels of this expression can be deemed as those who will receive the most benefit from treatment with Gadd45β inhibitors.
In order to determine the basis for the different sensitivity of tumour cell lines to Z-DTP-induced killing, we measured levels of Gadd45β expression in a panel of 29 tumour cell lines or different tissues of origin by using quantitative real-time polymerase chain reaction (qRT-PCT) and correlated these levels with the degree of susceptibility of these cell lines to the cytotoxic activity of Z-DTPs. […] Experimental Ct values were normalized to β-actin, and relative mRNA expression calculated versus a reference sample (i.e. mRNA from HEK-293T cells). The sensitivity of cancer cell lines to Z-DTP-induced killing was analysed as described above by performing [^3H]thymidine incorporation assays after treatment of the cells with 10 μM of Z-DTP2 for 144 hrs. […] The significance of the correlation coefficient between the 2 parameters' domain was calculated by Pearson correlation, which quantifies the association between two variables, using the GraphPad software.

Z-DTP2: tetrapeptide Tyr-Glu-Arg-Phe, amino acids in the D configuration, NH2 group at the C terminal, benzyloxycarbonyl group at the N terminal; specific Gadd45β inhibitor (Cbz-[dY][dE][dR][dF]-NH2)
cancer cell sensitivity to Z-DTP-induced killing versus levels of endogenous Gadd45β expression: correlates with a very high degree of statistical significance
